Values belong to the molecule of their own block, whether it stands above or below them.
What was measured:
[1] = Mouse liver microsome stability (t1/2, Clint); settings: 1 μM; 0.5 mg/ml microsomal protein
[2] = system: phospho-MEK in A549 cells; test: Cell-based pMEK (pMEK:tMEK, CRAF bypass) in A549 cells; settings: 2 h, pMEK to total MEK normalized to DMSO control
Summary of the method: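 Cells (A549 or A375) exposed 2 h to compounds at varying concentrations in duplicate, then lysed; lysates set to 1.5 mg/mL for pMEK by quantitative Western (Jess). Phospho-MEK/total MEK ratio normalized to DMSO control.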

[3] = Human liver microsome stability (t1/2, Clint); settings: 1 μM; 0.5 mg/ml microsomal protein
[4] = Kinetic solubility (PBS pH 7.4; 4 hr); format: physicochemical; settings: PBS pH = 7.4; 4 hr (Table 8)
Description: The plates were shaken for 4 h at room temperature in an Eppendorf Thermomixer. After incubation, the plates were centrifuged for 20 minutes at 4680 rpm. From the supernatant, 150 μL was transferred to a new 96 well plate and 50 μL DMSO was added to ensure continued dissolution. Samples were measured on LC-UV at injection volumes of 1 and 8 μL. Peak areas were determined and compared to peak areas obtained using calibration curves of the test compounds in DMSO.

[5] = PAMPA (pH 7.4); format: in vitro ADME; settings: pH = 7.4
Description: Each stock solution was diluted to 50 M in pH 7.4 Prisma HT buffer (pION) and 200 μl was added to each well of the donor plate in triplicate. The polyvinylidene fluoride (PVDF, 0.45 μm) filter membrane on the acceptor plate was coated with 5 μl gastrointestinal tract lipid formulation (GIT-0, pION) and to each well of the acceptor plate, 200 μl of acceptor sink buffer (pION) was added. The acceptor filter plate was then carefully placed on top of the donor plate to form a sandwich. The sandwich was incubated at 25° C. for 4 h without stirring. UV-vis spectra of the solutions in the blank, reference, acceptor and donor plates were measured using a microplate reader (Tecan Infinite 200PRO M Nano Plus). Permeability values were calculated using the PAMPA explorer software v.

[6] = eLogD (lipophilicity; pH 7.4) by HPLC; format: physicochemical
Description: Test compounds were dissolved in DMSO at a concentration of 10 mM and further diluted with methanol:water 1:1. Samples were analyzed using gradient HPLC with three different isocratic mobile phases of 0.25% octanol in methanol (60, 65 and 70%) and 20 mM MOPS buffer (pH 7.4) with decylamine. If needed, (for low E log Doct compounds) the isocratic mobile phases were adjusted to e.g. 40, 45 and 50% methanol. Peaks were detected using a diode array at absorbance 220-320 nm.
Capacity factors data (k′_=(tr−_t0)/t0) obtained at various amounts of methanol were extrapolated to 0% methanol and k′w values are determined using a linear procedure. E log Doct (7.4) is calculated using a series of reference standards with known Log D values. Each experiment was performed in triplicate.

[7] = system: phospho-ERK in A549 (KRAS G12S) cells; test: Cell-based pERK (pERK:tERK) in A549 cells
Summary of the method: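 A549 cells in 6-well plates were treated with compound at a predetermined concentration for 2 hours at 37 °C. Lysates were then normalised by Bradford protein assay to 1 mg/mL for pERK. Phospho-ERK and total ERK were detected by Western blot with IRDye secondary antibodies and quantified by LI-COR Odyssey imaging.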

[8] = Plasma stability, mouse plasma (Balb/c; Table 5 head CD-1 Mouse); format: in vitro ADME; settings: 2 μM
[9] = Plasma stability, beagle dog plasma (K2EDTA); format: in vitro ADME
Description: (§1) Individual stock solutions of propantheline and lovastatin were prepared at 10 mM in DMSO and were further diluted to 2 mM with DMSO.
(§2) Frozen matrices (Balb/c mouse, Wistar Han rat, Beagle dog, and human plasma containing K2EDTA as anti-coagulant) were thawed and centrifuged at 3100 rpm for 10 minutes at 4° C. to remove particulates. The lipid layer was then removed, and the supernatant was transferred to a new tube without disturbing the pellet. After the matrices were incubated at 37° C. for at least 10 minutes, the pH of each matrix was adjusted to pH 7.4, using 10% phosphoric acid or 1N sodium hydroxide as necessary. Test and control article stock solutions were spiked (2 μL) into matrix (1.998 mL) and mixed to final assay concentration of […]. Duplicate 30-μL aliquots of spiked plasma were transferred to matrix tubes in 96-well plate immediately after spiking for timepoints of 0, 30, 60, 120, 240, and 360 minutes. These tubes were then incubated at 37° C. with shaking and at each timepoint, the corresponding tubes containing samples were quenched with 180 μL of cold acetonitrile containing the internal standards. The quenched samples were vortex-mixed briefly and stored refrigerated. After the final time point (360 minutes), the plates with all quenched samples were vortex-mixed for 10 minutes and then centrifuged at 3100 rpm for 10 minutes at 4° C. to sediment the precipitated protein. The supernatant (50 μL) was transferred to a clean 96-well plate and diluted with 100 μL of water. The plates were stored refrigerated until analysis.
(§3) Data Analysis: Peak area ratios for IS-normalized test article and control article counts were used to calculate the percent remaining relative to the time zero (T0) value. As appropriate, results were plotted and further analyzed to calculate half-life (T1/2) values.
(§4) Mean peak area ratios were used to calculate the % remaining relative to the T0 value:
(§5) In this study, human, cynomolgus monkey, beagle dog, wistar hannover rat, and balb/c plasma stability was determined. Table 28 describes the results of the human plasma stability at 2 μM concentration and anti-coagulant K2-EDTA from 10 to 120 min. Table 29 describes the results of the cynomolgus monkey plasma stability at 2 μM concentration and anti-coagulant K2-EDTA. Table 30 describes the results of the beagle dog plasma stability at 2 μM concentration and anti-coagulant K2-EDTA. Table 31 describes the results of the wistar hannover rat plasma stability at 2 μM concentration and anti-coagulant K2-EDTA. Table 32 describes the results of the balb/c plasma stability at 2 μM concentration and anti-coagulant K2-EDTA.

[10] = Plasma stability, human plasma (K2EDTA); format: in vitro ADME
Description: as §1, §2, §3, §4, §5

[11] = target: CYP2C19 (Homo sapiens, UniProt P33261); test: in vitro; settings: pooled liver microsomes, pH 7.4, probe mephenytoin
CYP2C19, sequence (P33261 whole entry): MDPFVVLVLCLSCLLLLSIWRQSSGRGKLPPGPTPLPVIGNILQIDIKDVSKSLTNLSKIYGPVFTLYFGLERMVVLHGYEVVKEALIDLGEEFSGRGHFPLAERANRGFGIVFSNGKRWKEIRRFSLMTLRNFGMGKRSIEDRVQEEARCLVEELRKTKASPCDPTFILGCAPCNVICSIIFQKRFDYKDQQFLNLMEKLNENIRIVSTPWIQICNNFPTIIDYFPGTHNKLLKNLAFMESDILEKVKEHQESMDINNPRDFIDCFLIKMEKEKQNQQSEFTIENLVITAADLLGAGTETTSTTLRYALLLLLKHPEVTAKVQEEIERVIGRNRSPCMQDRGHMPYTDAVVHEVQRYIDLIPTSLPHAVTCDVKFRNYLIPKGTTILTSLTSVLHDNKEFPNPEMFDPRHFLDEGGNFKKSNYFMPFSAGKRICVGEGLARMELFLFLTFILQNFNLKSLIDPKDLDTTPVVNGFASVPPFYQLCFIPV

[12] = Plasma stability, mouse plasma (Balb/c; Table 5 head CD-1 Mouse); format: in vitro ADME; settings: BALB/c, mouse, plasma, pH 7.4
Description: as §1, §2, §3, §4, §5

[13] = Plasma stability, cynomolgus monkey plasma (K2-EDTA); format: in vitro ADME
Description: as §1, §2, §3, §4, §5

[14] = Plasma stability, rat plasma (Wistar Han / wistar hannover; Table 5 head SD Rat); format: in vitro ADME; settings: Wistar Hannover, rat, plasma, pH 7.4
Description: as §1, §2, §3, §4, §5

[15] = target: T1, CYP2C8 (Homo sapiens, UniProt P10632); test: in vitro; settings: pooled liver microsomes, pH 7.4, probe amodiaquine
T1 sequence (P10632 1-490): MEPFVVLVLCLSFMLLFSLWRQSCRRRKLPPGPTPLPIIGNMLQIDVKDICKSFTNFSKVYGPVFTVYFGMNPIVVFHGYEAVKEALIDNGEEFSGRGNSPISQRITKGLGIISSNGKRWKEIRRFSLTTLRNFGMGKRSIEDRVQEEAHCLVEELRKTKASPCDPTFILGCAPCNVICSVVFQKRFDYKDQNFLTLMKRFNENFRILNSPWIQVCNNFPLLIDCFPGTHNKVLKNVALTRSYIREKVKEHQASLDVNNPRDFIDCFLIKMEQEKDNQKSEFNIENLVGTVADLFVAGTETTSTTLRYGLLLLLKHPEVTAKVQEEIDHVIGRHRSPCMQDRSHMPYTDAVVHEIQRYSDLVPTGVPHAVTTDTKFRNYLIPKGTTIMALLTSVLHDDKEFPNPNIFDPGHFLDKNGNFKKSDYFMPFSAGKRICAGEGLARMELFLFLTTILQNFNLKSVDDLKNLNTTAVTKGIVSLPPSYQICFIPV

[16] = Guo et al Lancet Oncol. 2020; cited from earlier work
[17] = system: Caco-2 cells
[18] = in vitro; settings: human

CD-1 Mouse (% Reamining @2 hour) ([8]; CD-1, mouse, 2 h, pH 7.4): 27.1%
% Remaining at T120 ([12]; 2 h, 2 μM): 37.3%
half-life at 2 μM [12]: 1.68 h
% Remaining at T120 ([13]; 2 μM, anti-coagulant K2-EDTA, 120 min): 84.6%
half-life at 2 μM ([13]; plasma (K2EDTA), pH 7.4, anti-coagulant K2-EDTA): 7.5 h
Beagle Dog (% Reamining @2 hour) ([9]; beagle, dog, 2 h, 2 μM, pH 7.4): 58.4%
% Remaining at T120 ([9]; beagle, dog, plasma, 2 h, 2 μM, pH 7.4): 71.0%
half-life at 2 μM ([9]; beagle, dog, plasma, pH 7.4): 4.87 h
% Remaining at T120 ([14]; 2 h, 2 μM): 115.2%
half-life at 2 μM [14]: > 2 h
Human (% Reamining @2 hour) ([10]; human, 2 h, 2 μM, pH 7.4): 5.7%
% Remaining at T120 ([10]; human, plasma, 2 h, 2 μM, pH 7.4): 20.8%
half-life at 2 μM ([10]; human, plasma, pH 7.4): 0.943 h
Compound: CC(C)[N+](C)(CCOC(=O)C1c2ccccc2Oc2ccccc21)C(C)C [Propantheline, reference compound]

inhibition at 30 min, 10 µM [15]: 88.3%
Compound: O=c1c(O)c(-c2ccc(O)c(O)c2)oc2cc(O)cc(O)c12 [Quercetin, reference compound]

A − B Permeability Ranking [17]: Higher
A-B Permeability Ranking [17]: High
efflux ratio at 2 h, 10 μM ([18]; Caco-2, Mean (B-A/A-B) (Efflux Ratio)): 0.726
efflux ratio at 2 h, 10 μM ([18]; Caco-2, Mean Efflux Ratio): 0.513
Papp A→B at 2 h, 10 μM ([18]; Caco-2, Mean Papp A − B (10^−6 cm/s)): 405 nm/s
Papp A→B at 2 h, 10 μM ([18]; Caco-2, Mean Papp A-B (10^-6 cm/s)): 366 nm/s
Papp B→A at 2 h, 10 μM ([18]; Caco-2, Mean Papp B − A (10^−6 cm/s)): 208 nm/s
Papp B→A at 2 h, 10 μM ([18]; Caco-2, Mean Papp B-A (10^-6 cm/s)): 266 nm/s
Compound: CC(=O)CC(c1ccccc1)c1c(O)c2ccccc2oc1=O (stereo not shown) [Warfarin]

Continued, molecule first:

Compound: CNS(=O)(=O)Nc1cccc(Cc2c(CN3CCC3)c3cc(Cl)c(OC(=O)N(C)C)cc3oc2=O)c1F [Compound 19]
Mouse Clint [1]: 26 µL/min/mg
Mouse Microsome (t1/2 min) [1]: 0.883 h
A549-CRAF BP 100 nM, 2 h [2]: 51.9
Human Clint [3]: 37 µL/min/mg
Human Microsome (t1/2 min) [3]: 0.633 h
Kinetic Solubility (PBS pH = 7.4; 4 hr) [4]: >80 uM
PAMPA (pH = 7.4; Papp 10^−6 cm/s) [5]: 51 10^−6 cm/s
eLogD (lipophilicity; pH = 7.4) [6]: 2.9
A549-pERK (10 nM, 2 h) ([7]; 10 nM, 2 h, phospho- to total protein ratio normalized to DMSO control (Table 9)): 59.9
IC50 ([7]; A549, 12-point dose): 0.04 to 0.05 µM

Compound: CC[C@H](C)C(=O)O[C@H]1C[C@@H](C)C=C2C=C[C@H](C)[C@H](CC[C@@H]3C[C@@H](O)CC(=O)O3)[C@H]21 [Lovastatin, reference compound]
CD-1 Mouse (% Reamining @2 hour) ([8]; plasma, 2 hour): 0.6%
Beagle Dog (% Reamining @2 hour) ([9]; 2 μM, plasma, 2 hour): 94.1%
Human (% Reamining @2 hour) ([10]; 2 μM, plasma, 2 hour): 81.8%

Compound: COc1ccc2[nH]c([S+]([O-])Cc3ncc(C)c(OC)c3C)nc2c1 (stereo not shown) [Omeprazole, reference compound]
inhibition at 30 min, 10 µM [11]: 60.7%

Compound: CNS(=O)(=O)Nc1nccc(Cc2c(C)c3ccc(Oc4ncccn4)cc3oc2=O)c1F [VS-6766]
mean terminal half-life [16]: 53.6 h

— patent US20250179057A1, “MEK IMMUNE ONCOLOGY INHIBITORS AND THERAPEUTIC USES THEREOF” (Immuneering Corporation, priority 2022, published 2025)
